Data taken from US20240358692A1, “TREATMENT OF SCLERODERMA” (Aisa Pharma, Inc., priority 2023, published 2024).

System: participants with SSc-RP
Test: Average severity of weekly RP attacks (VAS 0-10)
Assay type: in vivo, human
Conditions: for Average Severity (0-10) of weekly RP attacks, Median / Average severity of weekly RP attacks, Change from Baseline, Mean / Average severity of weekly RP attacks, Change from Baseline, Median / Average severity of weekly RP attacks, Percent Change from Baseline, Mean / Average severity of weekly RP attacks, Percent Change from Baseline, Median / Average Severity (0-10) of weekly RP attacks, Mean: all attacks
From the text: The absolute change in average severity of weekly RP attacks (VAS 0-10 cm scale) from baseline to the end of each Dosing Period was and will be a secondary outcome variable. The sponsor-developed participant-informed diary will be used to record data. Average severity of weekly RP attacks is defined as the total severity scores of RP attacks divided by total number of RP attacks within the last 7 days of each dosing period. Total severity scores of RP attacks during the last 7 days of screening period divided by the total number of RP attacks will be used as baseline for the analysis of all periods. The variable will be calculated similar to frequency data as before.

[1] = Cilnidipine 10 mg, 1st Baseline RCS subgroup, ITT Part A, last 7 days of dosing period
[2] = Cilnidipine 10 mg, Excluding Outliers, 1st Baseline RCS subgroup, ITT Part A, last 7 days of dosing period
[3] = Cilnidipine 10 mg, ITT Part A, last 7 days of dosing period
[4] = Cilnidipine 10 mg, Excluding Outliers, ITT Part A
[5] = Cilnidipine 10 mg, Excluding Outliers, by Baseline RCS: first subgroup of Table C-8, ITT Part A
[6] = Cilnidipine 10 mg, by Baseline RCS: first subgroup of Table C-7, ITT Part A
[7] = Cilnidipine 10 mg, excluding outliers, ITT Part A
[8] = Cilnidipine 10 mg, excluding outliers, severity 0-10, ITT Part A
[9] = Cilnidipine 10 mg, severity 0-10, ITT Part A
[10] = Cilnidipine 20 mg, 1st Baseline RCS subgroup, ITT Part A, last 7 days of dosing period
[11] = Cilnidipine 20 mg, Excluding Outliers, 1st Baseline RCS subgroup, ITT Part A, last 7 days of dosing period
[12] = Cilnidipine 20 mg, ITT Part A, last 7 days of dosing period
[13] = Cilnidipine 20 mg, Excluding Outliers, ITT Part A
[14] = Cilnidipine 20 mg, Excluding Outliers, by Baseline RCS: first subgroup of Table C-8, ITT Part A
[15] = Cilnidipine 20 mg, by Baseline RCS: first subgroup of Table C-7, ITT Part A
[16] = Cilnidipine 20 mg, excluding outliers, ITT Part A
[17] = Cilnidipine 20 mg, excluding outliers, severity 0-10, ITT Part A
[18] = Cilnidipine 20 mg, severity 0-10, ITT Part A
[19] = Pooled Cilnidipine 10 mg and Cilnidipine 10 mg + Tadalafil 5 mg, 1st Baseline RCS subgroup, ITT Part A, last 7 days of dosing period
[20] = Pooled Cilnidipine 10 mg and Cilnidipine 10 mg + Tadalafil 5 mg, 2nd Baseline RCS subgroup, ITT Part A, last 7 days of dosing period

SMILES: COCCOC(=O)C1=C(C)NC(C)=C(C(=O)OC/C=C/c2ccccc2)C1c1cccc([N+](=O)[O-])c1 (stereo not shown) [Cilnidipine]
- Average Severity of Weekly Symptomatic RP Attacks, Change from Baseline, Mean [1]: 0.28
- Average Severity of Weekly Symptomatic RP Attacks, Change from Baseline, Median [1]: 0.28
- Average Severity of Weekly Symptomatic RP Attacks, Mean [1]: 3.77
- Average Severity of Weekly Symptomatic RP Attacks, Median [1]: 3.77
- Average Severity of Weekly Symptomatic RP Attacks, Percent Change from Baseline, Mean [1]: 8.05%
- Average Severity of Weekly Symptomatic RP Attacks, Percent Change from Baseline, Median [1]: 8.05%
- Average Severity of Weekly Symptomatic RP Attacks, Change from Baseline, Mean [2]: 0.28
- Average Severity of Weekly Symptomatic RP Attacks, Change from Baseline, Median [2]: 0.28
- Average Severity of Weekly Symptomatic RP Attacks, Mean [2]: 3.77
- Average Severity of Weekly Symptomatic RP Attacks, Median [2]: 3.77
- Average Severity of Weekly Symptomatic RP Attacks, Percent Change from Baseline, Mean [2]: 8.05%
- Average Severity of Weekly Symptomatic RP Attacks, Percent Change from Baseline, Median [2]: 8.05%
- Average Severity of Weekly Symptomatic RP Attacks, Percent Change from Baseline, Mean (Cilnidipine 10 mg, ITT Part A): 8.05%
- Average Severity of Weekly Symptomatic RP Attacks, Percent Change from Baseline, Median (Cilnidipine 10 mg, ITT Part A): 8.05%
- Average Severity of Weekly RP Attacks (All Attacks), Change from Baseline, Mean [3]: 0.02
- Average Severity of Weekly RP Attacks (All Attacks), Change from Baseline, Median [3]: 0.02
- Average Severity of Weekly RP Attacks (All Attacks), Mean [3]: 3.05
- Average Severity of Weekly RP Attacks (All Attacks), Median [3]: 3.05
- Average Severity of Weekly RP Attacks (All Attacks), Percent Change from Baseline, Mean [3]: 0.55%
- Average Severity of Weekly RP Attacks (All Attacks), Percent Change from Baseline, Median [3]: 0.55%
- Average Severity (0-10) of weekly RP attacks, Median [4]: 3.05
- Average severity of weekly RP attacks, Change from Baseline, Mean [4]: 0.02
- Average severity of weekly RP attacks, Change from Baseline, Median [4]: 0.02
- Average severity of weekly RP attacks, Percent Change from Baseline, Mean [4]: 0.55%
- Average severity of weekly RP attacks, Percent Change from Baseline, Median [4]: 0.55%
- Average Severity (0-10) of weekly RP attacks, Mean [5]: 3.05
- Average Severity (0-10) of weekly RP attacks, Median [5]: 3.05
- Average severity of weekly RP attacks, Change from Baseline, Mean [5]: 0.02
- Average severity of weekly RP attacks, Change from Baseline, Median [5]: 0.02
- Average severity of weekly RP attacks, Percent Change from Baseline, Mean [5]: 0.55%
- Average severity of weekly RP attacks, Percent Change from Baseline, Median [5]: 0.55%
- Average Severity (0-10) of weekly RP attacks, Mean [6]: 3.05
- Average Severity (0-10) of weekly RP attacks, Median [6]: 3.05
- Average severity of weekly RP attacks, Change from Baseline, Mean [6]: 0.02
- Average severity of weekly RP attacks, Change from Baseline, Median [6]: 0.02
- Average severity of weekly RP attacks, Percent Change from Baseline, Mean [6]: 0.55%
- Average severity of weekly RP attacks, Percent Change from Baseline, Median [6]: 0.55%
- Average Severity of Weekly Symptomatic RP Attacks, Percent Change from Baseline, Mean [7]: 8.05%
- Average Severity of Weekly Symptomatic RP Attacks, Percent Change from Baseline, Median [7]: 8.05%
- Average Severity of Weekly Symptomatic RP Attacks, Change from Baseline, Mean [8]: 0.28
- Average Severity of Weekly Symptomatic RP Attacks, Change from Baseline, Median [8]: 0.28
- Average Severity of Weekly Symptomatic RP Attacks, Mean [8]: 3.77
- Average Severity of Weekly Symptomatic RP Attacks, Median [8]: 3.77
- Average Severity of Weekly Symptomatic RP Attacks, Change from Baseline, Mean [9]: 0.28
- Average Severity of Weekly Symptomatic RP Attacks, Change from Baseline, Median [9]: 0.28
- Average Severity of Weekly Symptomatic RP Attacks, Mean [9]: 3.77
- Average Severity of Weekly Symptomatic RP Attacks, Median [9]: 3.77
- Severity (change) (Cilnidipine 20 mg (n = 3)): −36%
- Average Severity of Weekly Symptomatic RP Attacks, Change from Baseline, Mean [10]: −1.44
- Average Severity of Weekly Symptomatic RP Attacks, Change from Baseline, Median [10]: −1.44
- Average Severity of Weekly Symptomatic RP Attacks, Mean [10]: 2.30
- Average Severity of Weekly Symptomatic RP Attacks, Median [10]: 2.30
- Average Severity of Weekly Symptomatic RP Attacks, Percent Change from Baseline, Mean [10]: −32.85%
- Average Severity of Weekly Symptomatic RP Attacks, Percent Change from Baseline, Median [10]: −32.85%
- Average Severity of Weekly Symptomatic RP Attacks, Change from Baseline, Mean [11]: −1.44
- Average Severity of Weekly Symptomatic RP Attacks, Change from Baseline, Median [11]: −1.44
- Average Severity of Weekly Symptomatic RP Attacks, Mean [11]: 2.30
- Average Severity of Weekly Symptomatic RP Attacks, Median [11]: 2.30
- Average Severity of Weekly Symptomatic RP Attacks, Percent Change from Baseline, Mean [11]: −32.85%
- Average Severity of Weekly Symptomatic RP Attacks, Percent Change from Baseline, Median [11]: −32.85%
- Average Severity of Weekly Symptomatic RP Attacks, Percent Change from Baseline, Mean (Cilnidipine 20 mg, ITT Part A): −32.85%
- Average Severity of Weekly Symptomatic RP Attacks, Percent Change from Baseline, Median (Cilnidipine 20 mg, ITT Part A): −32.85%
- Average Severity of Weekly RP Attacks (All Attacks), Change from Baseline, Mean [12]: −1.07
- Average Severity of Weekly RP Attacks (All Attacks), Change from Baseline, Median [12]: −1.07
- Average Severity of Weekly RP Attacks (All Attacks), Mean [12]: 2.30
- Average Severity of Weekly RP Attacks (All Attacks), Median [12]: 2.30
- Average Severity of Weekly RP Attacks (All Attacks), Percent Change from Baseline, Mean [12]: −27.26%
- Average Severity of Weekly RP Attacks (All Attacks), Percent Change from Baseline, Median [12]: −27.26%
- Average Severity (0-10) of weekly RP attacks, Mean [13]: 2.30
- Average Severity (0-10) of weekly RP attacks, Median [13]: 2.30
- Average severity of weekly RP attacks, Change from Baseline, Mean [13]: −1.07
- Average severity of weekly RP attacks, Change from Baseline, Median [13]: −1.07
- Average severity of weekly RP attacks, Percent Change from Baseline, Mean [13]: −27.26%
- Average severity of weekly RP attacks, Percent Change from Baseline, Median [13]: −27.26%
- Average Severity (0-10) of weekly RP attacks, Mean [14]: 2.30
- Average Severity (0-10) of weekly RP attacks, Median [14]: 2.30
- Average severity of weekly RP attacks, Change from Baseline, Mean [14]: −1.07
- Average severity of weekly RP attacks, Change from Baseline, Median [14]: −1.07
- Average severity of weekly RP attacks, Percent Change from Baseline, Mean [14]: −27.26%
- Average severity of weekly RP attacks, Percent Change from Baseline, Median [14]: −27.26%
- Average Severity (0-10) of weekly RP attacks, Mean [15]: 2.30
- Average Severity (0-10) of weekly RP attacks, Median [15]: 2.30
- Average severity of weekly RP attacks, Change from Baseline, Mean [15]: −1.07
- Average severity of weekly RP attacks, Change from Baseline, Median [15]: −1.07
- Average severity of weekly RP attacks, Percent Change from Baseline, Mean [15]: −27.26%
- Average severity of weekly RP attacks, Percent Change from Baseline, Median [15]: −27.26%
- Average Severity of Weekly Symptomatic RP Attacks, Percent Change from Baseline, Mean [16]: −32.85%
- Average Severity of Weekly Symptomatic RP Attacks, Percent Change from Baseline, Median [16]: −32.85%
- Average Severity of Weekly Symptomatic RP Attacks, Change from Baseline, Mean [17]: −1.44
- Average Severity of Weekly Symptomatic RP Attacks, Change from Baseline, Median [17]: −1.44
- Average Severity of Weekly Symptomatic RP Attacks, Mean [17]: 2.30
- Average Severity of Weekly Symptomatic RP Attacks, Median [17]: 2.30
- Average Severity of Weekly Symptomatic RP Attacks, Change from Baseline, Mean [18]: −1.44
- Average Severity of Weekly Symptomatic RP Attacks, Change from Baseline, Median [18]: −1.44
- Average Severity of Weekly Symptomatic RP Attacks, Mean [18]: 2.30
- Average Severity of Weekly Symptomatic RP Attacks, Median [18]: 2.30
- Average Severity of Weekly Symptomatic RP Attacks, Change from Baseline, Mean [19]: −1.22
- Average Severity of Weekly Symptomatic RP Attacks, Change from Baseline, Median [19]: −1.22
- Average Severity of Weekly Symptomatic RP Attacks, Mean [19]: 3.34
- Average Severity of Weekly Symptomatic RP Attacks, Median [19]: 3.34
- Average Severity of Weekly Symptomatic RP Attacks, Percent Change from Baseline, Mean [19]: −20.18%
- Average Severity of Weekly Symptomatic RP Attacks, Percent Change from Baseline, Median [19]: −20.18%
- Average Severity of Weekly Symptomatic RP Attacks, Change from Baseline, Mean [20]: −1.13
- Average Severity of Weekly Symptomatic RP Attacks, Change from Baseline, Median [20]: −1.13
- Average Severity of Weekly Symptomatic RP Attacks, Mean [20]: 5.23
- Average Severity of Weekly Symptomatic RP Attacks, Median [20]: 5.23
- Average Severity of Weekly Symptomatic RP Attacks, Percent Change from Baseline, Mean [20]: −17.81%
- Average Severity of Weekly Symptomatic RP Attacks, Percent Change from Baseline, Median [20]: −17.81%
- Average Severity of Weekly Symptomatic RP Attacks, Change from Baseline, Mean (Pooled Cilnidipine 10 mg and Cilnidipine 10 mg + Tadalafil 5 mg, Excluding Outliers, 1st Baseline RCS subgroup, ITT Part A, last 7 days of dosing period): −1.22
